# In paper PMC5218480 (PLoS ONE, 2017):
# Tested on: MV-4-11 cells
# Test: Gene expression microarray analysis (Affymetrix PrimeView) and GSEA
# Type: cell-based, human
# Set-up: RFU PODN (11730768_x_at) / Fold change /veh PODN (11730768_x_at) / RFU LINC00158 (11744669_a_at) / Fold change /veh LINC00158 (11744669_a_at) / RFU DUSP10 (11751237_a_at) / Fold change /veh DUSP10 (11751237_a_at) / RFU ID3 (11757404_x_at) / Fold change /veh ID3 (11757404_x_at) / RFU PLEKHG5 (11737974_s_at) / Fold change /veh PLEKHG5 (11737974_s_at) / RFU LRRC4B (11730491_at) / Fold change /veh LRRC4B (11730491_at) / RFU GIMAP4 (11747438_a_at) / Fold change /veh GIMAP4 (11747438_a_at) / RFU KRT8 (11758183_x_at) / Fold change /veh KRT8 (11758183_x_at) / RFU CNN1 (11734310_a_at) / Fold change /veh CNN1 (11734310_a_at) / RFU VPS37D (11726825_at) / Fold change /veh VPS37D (11726825_at) / RFU C10orf10 (11716522_x_at) / Fold change /veh C10orf10 (11716522_x_at) / RFU KIR2DL2 /// KIR2DL4 /// KIR2DL5A /// KIR2DL5B /// KIR2DS1 /// KIR2DS2 /// KIR2DS3 /// KIR2DS4 /// KIR3DL3 /// KIR3DL3 /// KIR3DS1 (11738374_at) / Fold change /veh KIR2DL2 /// KIR2DL4 /// KIR2DL5A /// KIR2DL5B /// KIR2DS1 /// KIR2DS2 /// KIR2DS3 /// KIR2DS4 /// KIR3DL3 /// KIR3DL3 /// KIR3DS1 (11738374_at) / RFU C1QL1 (11718748_at) / Fold change /veh C1QL1 (11718748_at) / RFU TMPRSS4 (11747572_a_at) / Fold change /veh TMPRSS4 (11747572_a_at) / RFU HAMP (11756126_x_at) / Fold change /veh HAMP (11756126_x_at) / RFU RNFT2 (11725882_a_at) / Fold change /veh RNFT2 (11725882_a_at) / RFU NR4A2 (11747474_a_at) / Fold change /veh NR4A2 (11747474_a_at) / RFU ABCC12 (11746883_a_at) / Fold change /veh ABCC12 (11746883_a_at) / RFU TMEM136 (11760407_x_at) / Fold change /veh TMEM136 (11760407_x_at) / RFU CLDN22 /// WWC2 (11732394_at) / Fold change /veh CLDN22 /// WWC2 (11732394_at) / RFU HLA-DPB1 (11760878_x_at) / Fold change /veh HLA-DPB1 (11760878_x_at) / RFU SPINT1 (11716480_a_at) / Fold change /veh SPINT1 (11716480_a_at) / RFU GAP43 (11754022_s_at) / Fold change /veh GAP43 (11754022_s_at) / RFU A4GNT (11735810_at) / Fold change /veh A4GNT (11735810_at) / RFU PRB3 (11715151_x_at) / Fold change /veh PRB3 (11715151_x_at) / RFU TUBB4B (11761932_at) / Fold change /veh TUBB4B (11761932_at) / RFU CAPN14 (11732068_a_at) / Fold change /veh CAPN14 (11732068_a_at) / RFU TMCC2 (11721928_a_at) / Fold change /veh TMCC2 (11721928_a_at) / RFU IRGQ (11745062_a_at) / Fold change /veh IRGQ (11745062_a_at) / RFU FAM174B (11720279_a_at) / Fold change /veh FAM174B (11720279_a_at) / RFU TMPRSS4 (11748680_a_at) / Fold change /veh TMPRSS4 (11748680_a_at) / RFU FAM212B (11763350_a_at) / Fold change /veh FAM212B (11763350_a_at) / RFU PLEKHG5 (11743358_a_at) / Fold change /veh PLEKHG5 (11743358_a_at) / RFU ZSCAN30 (11745921_a_at) / Fold change /veh ZSCAN30 (11745921_a_at) / RFU CMKLR1 (11741424_a_at) / Fold change /veh CMKLR1 (11741424_a_at) / RFU LOC101060620 /// MAPK8IP1 (11723275_at) / Fold change /veh LOC101060620 /// MAPK8IP1 (11723275_at) / RFU SPTSSB (11747773_x_at) / Fold change /veh SPTSSB (11747773_x_at) / RFU PRSS12 (11739890_at) / Fold change /veh PRSS12 (11739890_at) / RFU BIN1 (11741810_x_at) / Fold change /veh BIN1 (11741810_x_at) / RFU WNT11 (11732464_a_at) / Fold change /veh WNT11 (11732464_a_at) / RFU C10orf10 (11716521_a_at) / Fold change /veh C10orf10 (11716521_a_at) / RFU C5orf56 (11738089_at) / Fold change /veh C5orf56 (11738089_at) / RFU CYB561 (11721691_x_at) / Fold change /veh CYB561 (11721691_x_at) / RFU ANKRD19P (11752326_a_at) / Fold change /veh ANKRD19P (11752326_a_at) / RFU OR2T12 /// OR2T33 /// OR2T8 (11738714_s_at) / Fold change /veh OR2T12 /// OR2T33 /// OR2T8 (11738714_s_at) / RFU VCAN (11748164_a_at) / Fold change /veh VCAN (11748164_a_at) / RFU JSRP1 (11732532_at) / Fold change /veh JSRP1 (11732532_at) / RFU KRTAP10-11 (11738290_x_at) / Fold change /veh KRTAP10-11 (11738290_x_at) / RFU MYO3A (11730013_a_at) / Fold change /veh MYO3A (11730013_a_at) / RFU EBF3 (11725865_a_at) / Fold change /veh EBF3 (11725865_a_at) / RFU CAMK2N1 (11719241_x_at) / Fold change /veh CAMK2N1 (11719241_x_at) / RFU C5orf56 (11738088_a_at) / Fold change /veh C5orf56 (11738088_a_at) / RFU OLFML3 (11715873_a_at) / Fold change /veh OLFML3 (11715873_a_at) / RFU LOC100653217 /// NTM (11731650_a_at) / Fold change /veh LOC100653217 /// NTM (11731650_a_at) / RFU MAPK11 (11762145_a_at) / Fold change /veh MAPK11 (11762145_a_at) / RFU FIZ1 (11724087_x_at) / Fold change /veh FIZ1 (11724087_x_at) / RFU OASL (11726364_x_at) / Fold change /veh OASL (11726364_x_at) / RFU SOX15 (11748057_x_at) / Fold change /veh SOX15 (11748057_x_at) / RFU CD79A (11719716_a_at) / Fold change /veh CD79A (11719716_a_at) / RFU HIST1H1D (11736915_at) / Fold change /veh HIST1H1D (11736915_at) / RFU CASKIN2 (11723855_a_at) / Fold change /veh CASKIN2 (11723855_a_at) / RFU LOC730098 (11760151_x_at) / Fold change /veh LOC730098 (11760151_x_at) / RFU OR4N2 (11742367_at) / Fold change /veh OR4N2 (11742367_at) / RFU PRRT2 (11749266_a_at) / Fold change /veh PRRT2 (11749266_a_at) / RFU SNX32 (11753110_a_at) / Fold change /veh SNX32 (11753110_a_at) / RFU CDHR5 (11726645_a_at) / Fold change /veh CDHR5 (11726645_a_at) / RFU RCAN1 (11760418_a_at) / Fold change /veh RCAN1 (11760418_a_at) / RFU FAM167A (11723789_a_at) / Fold change /veh FAM167A (11723789_a_at) / RFU FAM26E (11764081_at) / Fold change /veh FAM26E (11764081_at) / RFU ISYNA1 (11749810_s_at) / Fold change /veh ISYNA1 (11749810_s_at) / RFU ACY1 (11761880_at) / Fold change /veh ACY1 (11761880_at) / RFU 11764098_at / Fold change /veh 11764098_at / RFU SAMD14 (11745864_x_at) / Fold change /veh SAMD14 (11745864_x_at) / RFU NPB (11741838_a_at) / Fold change /veh NPB (11741838_a_at) / RFU TMPRSS6 (11731388_a_at) / Fold change /veh TMPRSS6 (11731388_a_at) / RFU KRTAP10-2 (11738614_at) / Fold change /veh KRTAP10-2 (11738614_at) / RFU ARHGAP8 /// PRR5-ARHGAP8 (11727945_x_at) / Fold change /veh ARHGAP8 /// PRR5-ARHGAP8 (11727945_x_at) / RFU KRTAP5-7 /// NADSYN1 (11734609_at) / Fold change /veh KRTAP5-7 /// NADSYN1 (11734609_at) / RFU RASL12 (11751679_a_at) / Fold change /veh RASL12 (11751679_a_at) / RFU CDKN2B (11736163_a_at) / Fold change /veh CDKN2B (11736163_a_at) / RFU PRF1 (11729649_at) / Fold change /veh PRF1 (11729649_at) / RFU, ZNF638 /// ZNF638-IT1 / Fold change vs veh, ZNF638 /// ZNF638-IT1 / RFU, PANK3 / Fold change vs veh, PANK3 / RFU, SH3YL1 / Fold change vs veh, SH3YL1 / RFU, ZEB2 / Fold change vs veh, ZEB2 / RFU, NRIP1 / Fold change vs veh, NRIP1 / RFU, PTTG1IP / Fold change vs veh, PTTG1IP / RFU, CAPN2 / Fold change vs veh, CAPN2 / RFU, MED14 / Fold change vs veh, MED14 / RFU, SNORA58 / Fold change vs veh, SNORA58 / RFU, C1orf63 / Fold change vs veh, C1orf63 / RFU, LRRFIP1 / Fold change vs veh, LRRFIP1 / RFU, NDUFAF7 / Fold change vs veh, NDUFAF7 / RFU, SLC12A2 / Fold change vs veh, SLC12A2 / RFU, IBTK / Fold change vs veh, IBTK / RFU, ESF1 / Fold change vs veh, ESF1 / Fold change vs veh, TMEM50B / RFU, TAOK1 / Fold change vs veh, TAOK1 / RFU, ACBD3 / Fold change vs veh, ACBD3 / RFU, TMA16 / Fold change vs veh, TMA16 / RFU, RWDD3 / Fold change vs veh, RWDD3 / RFU, BCAT1 / Fold change vs veh, BCAT1 / RFU, EDEM3 / Fold change vs veh, EDEM3 / RFU, TMEM33 / Fold change vs veh, TMEM33 / RFU, WDR75 / Fold change vs veh, WDR75 / RFU, AHCTF1 / Fold change vs veh, AHCTF1 / RFU, TFRC / Fold change vs veh, TFRC / RFU, ZDHHC17 / Fold change vs veh, ZDHHC17 / RFU, NOM1 / Fold change vs veh, NOM1 / RFU, ARL8B / Fold change vs veh, ARL8B / RFU, ZBTB11 / Fold change vs veh, ZBTB11 / RFU, TAMM41 / Fold change vs veh, TAMM41 / RFU, KIAA1704 /// LOC100996395 / Fold change vs veh, KIAA1704 /// LOC100996395 / RFU, ING1 / Fold change vs veh, ING1 / RFU, TRMT61B / Fold change vs veh, TRMT61B / RFU, FUBP3 / Fold change vs veh, FUBP3 / RFU, TP53 / Fold change vs veh, TP53 / RFU, TNKS2 / Fold change vs veh, TNKS2 / RFU, ZFP14 / Fold change vs veh, ZFP14 / RFU, ACTR2 / Fold change vs veh, ACTR2 / RFU, PPP3R1 / Fold change vs veh, PPP3R1 / RFU, PIK3R1 / Fold change vs veh, PIK3R1 / RFU, HNRNPA1 / Fold change vs veh, HNRNPA1 / RFU, RNF170 / Fold change vs veh, RNF170 / RFU, ZNF28 / Fold change vs veh, ZNF28 / RFU, RNGTT / Fold change vs veh, RNGTT / RFU, OGT / Fold change vs veh, OGT / RFU, BRD1 / Fold change vs veh, BRD1 / RFU, MARS / Fold change vs veh, MARS / RFU, ZNF655 / Fold change vs veh, ZNF655 / RFU, FAHD1 / Fold change vs veh, FAHD1 / RFU, BDP1 / Fold change vs veh, BDP1 / RFU, LRRCC1 / Fold change vs veh, LRRCC1 / RFU, ARID1A / Fold change vs veh, ARID1A / RFU, ZNF146 / Fold change vs veh, ZNF146 / RFU, ZNF330 / Fold change vs veh, ZNF330 / RFU, GPN3 / Fold change vs veh, GPN3 / RFU, C9orf123 / Fold change vs veh, C9orf123 / RFU, N4BP2L2 / Fold change vs veh, N4BP2L2 / RFU, ARFIP1 / Fold change vs veh, ARFIP1 / RFU, FAM179B / Fold change vs veh, FAM179B / RFU, BCL10 / Fold change vs veh, BCL10 / RFU, UHRF1BP1L / Fold change vs veh, UHRF1BP1L / RFU, BET1 / Fold change vs veh, BET1 / RFU, CNOT2 / Fold change vs veh, CNOT2 / RFU, ZNF268 / Fold change vs veh, ZNF268 / Fold change vs veh, ZNF507 / RFU, DGCR2 / Fold change vs veh, DGCR2 / RFU, WDSUB1 / Fold change vs veh, WDSUB1 / Fold change vs veh, HSP90B1 /// MIR3652 / RFU, ADSS / Fold change vs veh, ADSS / RFU, GK / Fold change vs veh, GK / RFU, ZNF148 / Fold change vs veh, ZNF148 / RFU, TAF9 / Fold change vs veh, TAF9 / RFU, SLC1A5 / Fold change vs veh, SLC1A5 / RFU, SLMO2 / Fold change vs veh, SLMO2 / RFU, ABCC4 / Fold change vs veh, ABCC4 / RFU, LOC101060439 /// RAP1B / Fold change vs veh, LOC101060439 /// RAP1B / RFU, RFX7 / Fold change vs veh, RFX7 / RFU, GTPBP10 / Fold change vs veh, GTPBP10 / RFU, CNEP1R1 / Fold change vs veh, CNEP1R1 / RFU, BIVM-ERCC5 /// ERCC5 / Fold change vs veh, BIVM-ERCC5 /// ERCC5 / RFU, ILF3 / Fold change vs veh, ILF3 / RFU 11762660_at / Fold change /veh 11762660_at / RFU VCAN (11757783_s_at) / Fold change /veh VCAN (11757783_s_at) / RFU DDX43 (11728927_at) / Fold change /veh DDX43 (11728927_at) / RFU KRT8 (11758188_x_at) / Fold change /veh KRT8 (11758188_x_at) / RFU NKD1 (11759106_at) / Fold change /veh NKD1 (11759106_at) / RFU SRD5A1 (11742802_a_at) / Fold change /veh SRD5A1 (11742802_a_at) / RFU TPSAB1 /// TPSB2 (11721975_s_at) / Fold change /veh TPSAB1 /// TPSB2 (11721975_s_at) / RFU GSTM3 (11746129_a_at) / Fold change /veh GSTM3 (11746129_a_at) / RFU IL23R (11737362_x_at) / Fold change /veh IL23R (11737362_x_at) / RFU TMEM51 (11727254_a_at) / Fold change /veh TMEM51 (11727254_a_at) / RFU PIWIL2 (11732686_x_at) / Fold change /veh PIWIL2 (11732686_x_at) / RFU ORM1 (11744905_x_at) / Fold change /veh ORM1 (11744905_x_at) / RFU CCDC152 (11743942_at) / Fold change /veh CCDC152 (11743942_at) / RFU ECM1 (11717891_a_at) / Fold change /veh ECM1 (11717891_a_at) / RFU IL23R (11748794_a_at) / Fold change /veh IL23R (11748794_a_at) / RFU TNFAIP8L3 (11732012_x_at) / Fold change /veh TNFAIP8L3 (11732012_x_at) / RFU MBOAT4 (11741988_at) / Fold change /veh MBOAT4 (11741988_at) / RFU 11764193_at / Fold change /veh 11764193_at / RFU TMEM53 (11763286_at) / Fold change /veh TMEM53 (11763286_at) / RFU MAGEB2 (11727129_at) / Fold change /veh MAGEB2 (11727129_at) / RFU TMEM200A (11744735_a_at) / Fold change /veh TMEM200A (11744735_a_at) / RFU CCDC152 (11751479_a_at) / Fold change /veh CCDC152 (11751479_a_at) / RFU FAM211A (11726209_a_at) / Fold change /veh FAM211A (11726209_a_at) / RFU RGS16 (11746705_a_at) / Fold change /veh RGS16 (11746705_a_at) / RFU VCAN (11755009_s_at) / Fold change /veh VCAN (11755009_s_at) / RFU RHOB (11743442_s_at) / Fold change /veh RHOB (11743442_s_at) / RFU RGS16 (11720943_a_at) / Fold change /veh RGS16 (11720943_a_at) / RFU RGS16 (11720944_at) / Fold change /veh RGS16 (11720944_at) / RFU, VPS4B / Fold change vs veh, VPS4B / RFU, CREB1 / Fold change vs veh, CREB1 / RFU, DNAJC13 / Fold change vs veh, DNAJC13 / RFU, GNAQ / Fold change vs veh, GNAQ / RFU, CDK5R1 / Fold change vs veh, CDK5R1 / RFU, ZRANB3 / Fold change vs veh, ZRANB3 / RFU, CUL4A / Fold change vs veh, CUL4A / RFU, CCNY / Fold change vs veh, CCNY / RFU, UFL1 / Fold change vs veh, UFL1 / RFU, COG3 / Fold change vs veh, COG3 / RFU, DIAPH2 / Fold change vs veh, DIAPH2 / RFU, SKA2 / Fold change vs veh, SKA2 / RFU, AFF3 / Fold change vs veh, AFF3 / RFU, LMF1 / Fold change vs veh, LMF1 / RFU, IPO11 / Fold change vs veh, IPO11 / RFU, DFFB / Fold change vs veh, DFFB / RFU, FOXP1 / Fold change vs veh, FOXP1 / RFU, CARD8 / Fold change vs veh, CARD8 / RFU, STRN3 / Fold change vs veh, STRN3 / RFU, ADK / Fold change vs veh, ADK / RFU, RASSF2 / Fold change vs veh, RASSF2 / RFU, WIPF1 / Fold change vs veh, WIPF1 / RFU, LARP1B / Fold change vs veh, LARP1B / RFU, RASA1 / Fold change vs veh, RASA1 / RFU, RB1 / Fold change vs veh, RB1 / RFU, PPFIA1 / Fold change vs veh, PPFIA1 / RFU, MAT2A / Fold change vs veh, MAT2A / RFU, CCT5 / Fold change vs veh, CCT5 / RFU, WDR92 / Fold change vs veh, WDR92 / RFU, CUX1 / Fold change vs veh, CUX1 / RFU, TTC7A / Fold change vs veh, TTC7A / RFU, TMEM135 / Fold change vs veh, TMEM135 / RFU, DEPTOR / Fold change vs veh, DEPTOR / RFU, CPM / Fold change vs veh, CPM / RFU, DNAJB6 / Fold change vs veh, DNAJB6 / RFU, CACNA2D3 / Fold change vs veh, CACNA2D3 / RFU, DTX4 / Fold change vs veh, DTX4 / RFU, TFCP2 / Fold change vs veh, TFCP2 / RFU, GMCL1 /// GMCL1P1 / Fold change vs veh, GMCL1 /// GMCL1P1 / RFU, AEBP2 / Fold change vs veh, AEBP2 / RFU, SNHG1 /// SNORD22 /// SNORD25 /// SNORD26 /// SNORD27 /// SNORD28 /// SNORD29 /// SNORD31 / Fold change vs veh, SNHG1 /// SNORD22 /// SNORD25 /// SNORD26 /// SNORD27 /// SNORD28 /// SNORD29 /// SNORD31 / Fold change (Aza/veh), C12orf56 (ProbeSet 11735607_a_at) / Fold change (ACY-1035/veh), C12orf56 (ProbeSet 11735607_a_at) / Fold change (Aza/veh), FGFR1OP (ProbeSet 11751329_s_at) / Fold change (ACY-1035/veh), FGFR1OP (ProbeSet 11751329_s_at) / Fold change (Aza/veh), VPS36 (ProbeSet 11739960_a_at) / Fold change (ACY-1035/veh), VPS36 (ProbeSet 11739960_a_at) / RFU SYPL1 (11715823_x_at) / Fold change /veh SYPL1 (11715823_x_at) / RFU IGFBP7 (11715501_s_at) / Fold change /veh IGFBP7 (11715501_s_at) / RFU REEP3 (11722064_at) / Fold change /veh REEP3 (11722064_at) / RFU IGLL1 (11728026_x_at) / Fold change /veh IGLL1 (11728026_x_at): dose or concentration left out as unconfirmed
# Details: ProbeSet 11739106_a_at; LIST B
compound,measurement,value
Nc1ncn([C@@H]2O[C@H](CO)[C@@H](O)[C@H]2O)c(=O)n1 [azacitidine],"RFU, TMEM33",268.42 RFU
